Test results from patent US20230310427A1, “NEW THERAPEUTIC USE OF RILPIVIRINE” (UNIVERSITY OF SOUTH AUSTRALIA, priority 2020, published 2023).

What was measured:
[1] = system: expanded panel of 429 different kinases; experiment: Kinase profiling, expanded panel; format: biochemical; details: 1 µM
Experimental: The ability of compounds to inhibit kinases was measured using ADP-Glo^Tm assay kits (Promega, Madison, WI, United States of America) or externally using radioisotope based assays (Reaction Biology Corporation, Malvern, PA, United States of America and Eurofins discovery services, France). The ADP-Glo assay was performed as reported previously (Basnet SK et al., Mol Pharmacol 88(5):935-948, 2015).The assay plate was read for luminescence using Envision multi-label plate reader (PerkinElmer, Waltham, MA, United States of America). Half-maximal inhibition (IC50) values were determined from a plot of percent residual activity versus concentration of test compounds using GraphPad Prism software. Ki values were calculated from IC50 values using the Cheng-Prusoff equation: Ki= IC50/ [1 + ([ATP]/Km ATP)], where [ATP] is the ATP concentration used for the IC50 determination and Km ATP for each kinase is determined from an individual experiment.
In a subsequent kinase profiling experiment, using an expanded panel of 429 different kinases, the inhibitory activity of Rilpivirine was confirmed using a reduced concentration of 1 µM. […] The percent inhibition against Aurora A, PIM1, LYN and YES kinases were 86, 78, 77 and 83% respectively at the concentration of 1 µM of Rilpivirine. The other 424 kinases were inhibited by less than 70 % at this concentration.

A2780 cells = experiment: Colony formation assay; format: cell-based; details: data not shown
Experimental: A total of 1000-1500 cells/well were plated on a 6 well plate and allowed to adhere for 6-8 hours. Appropriate concentrations of Rilpivirine were added and then the cells were put back into the incubator for 7-14 days. The medium was changed every 3 days. After the incubation, the cells were washed with 1 ml PBS carefully. Cells were then fixed with 1 % Formaldehyde and stained with crystal violet. Colonies were counted with >50 cells by eye and images were taken using a camera fitted with microscope.

[2] = system: Leukemia (HL-60, U-937, NB4, Jurkat, K-562), ovarian (A2780), prostate (PC3) and breast (T47D) cancer cell lines; experiment: Cell viability assays (MTT and resazurin); format: cell-based; details: 72 hour treatment; range over all cell lines tested; read-out: IC50, inhibition of cancer cell proliferation
From the text: The MTT (3-(4,5-dimethylthiazol-2-yl)-2,5-diphenyl tetrazolium bromide; Sigma-Aldrich, St Louis, MO, United States of America) assay was used to determine half maximal inhibition values (IC50) in response to drug treatment using a number of different adherent cancer cell lines. The MTT was converted by metabolically active cells into an insoluble formazan product which was solubilised with 100% DMSO. The solubilised formazan gives absorbance at 560 nm which is directly proportional to the number of viable cells. The assay was carried out as previously described (Wang S et al., J Med Chem 47(7):1662-1675, 2004). The absorbance of treated wells was read using an EnVision multi-label plate reader. The resazurin assay was carried out for non-adherent cell lines as reported previously (Yu M et al., EJMC 95:116-126, 2015). IC50 values were determined by non-linear regression analysis using GraphPad Prism software.

[3] = system: cleaved PARP (poly (ADP-ribose) polymerase); experiment: Western blot of cell lysates, apoptosis markers; format: cell-based; details: increasing concentrations; data not shown
Experimental: (§1) For Western blotting, cells (8×10^5) were seeded in a culture dish with 10 mL medium and incubated overnight at 37° C., 5% CO2. Untreated and compound-treated cells were lysed using phosphate lysis buffer and protease inhibitors. The protein concentration of each sample was determined by Bio-Rad DC™ protein assay (Bio-Rad Laboratories, Hercules, CA, United States of America). The protein was deactivated at 95° C. for 5 min and then resolved on 4-20% polyacrylamide gels by electrophoresis. Proteins were transferred to polyvinylidene difluoride (PDVF) membrane and blocked for 1 h with 10% skimmed milk (SM) in Tris-buffered saline and Tween (TBST). After adding primary antibody, the membranes were incubated overnight on a rocker in a 4° C. cold room. The following day, membranes were washed in TBST (4×20 min), incubated for at least 1 h at room temperature with the appropriate horseradish peroxidase conjugated secondary antibody. Following this, the blots were washed with TBST (4×20 min) again. The blots were then treated with Western blotting detection reagent and the band intensity was determined using a Bio-Rad ChemiDoc™ MP imaging system (Bio-Rad Laboratories). All the antibodies used for protein detection were from Cell Signaling Technology (Danvers, MA, United States of America). […]

bc1-2 = experiment: Western blot of cell lysates, apoptosis markers; format: cell-based; details: increasing concentrations; data not shown
Experimental: as §1

NB4 cells = experiment: Apoptosis analysis (Annexin-V FITC/PI); format: cell-based; details: 48 hour treatment, various concentrations
Experimental: (§2) Instead of ethanol fixation, the cell number of each sample was counted, and the cells were diluted to 1×10^5 cells with 1 mL PBS in fresh FACS tubes. Cells were centrifuged and then re-suspended in 1 mL of cold PBS (whole step repeated twice). Pelleted cells were resuspended in 100 µL binding buffer, and subsequently 3 µL of Annexin V and 3 µL of PI were added to all tubes and incubated in the dark for 15 min at room temperature. Following the incubation period, 200 µL of 1 x binding buffer was added. Samples were assessed using a flow cytometer (Cytoflex) within 1 h of staining and data were analysed using Cytexpert software.

Jurkat cells = experiment: Apoptosis analysis (Annexin-V FITC/PI); format: cell-based; details: 48 hour treatment, various concentrations
Experimental: as §2

HL-60 cells = experiment: Apoptosis analysis (Annexin-V FITC/PI); format: cell-based; details: 48 hour treatment, various concentrations
Experimental: as §2

p53 WT A2780 cells = experiment: Apoptosis analysis (Annexin-V FITC/PI); format: cell-based; details: 48 hour treatments, various concentrations
Experimental: as §2

Cc1cc(/C=C/C#N)cc(C)c1Nc1ccnc(Nc2ccc(C#N)cc2)n1 [Rilpivirine, 4-[[4-[4-[(E)-2-cyanoethenyl]-2,6-dimethylanilino]pyrimidin-2-yl]amino]benzonitrile]
percent inhibition of the other 424 kinases [1]: less than 70% | kinase selectivity ([1]; panel of 429 kinases): selective inhibitor of Aurora A | clonogenic survival (A2780 cells): clear inhibition of clonogenic survival | IC50 [2]: 3 to 8 µM | cleaved PARP in cell lysates [3]: appearance in the cell lysates of cleaved PARP | bc1-2 level in cell lysates (bc1-2): downregulation of bc1-2 | induction of apoptosis (NB4 cells): induces apoptosis in all of these cell lines in a dose-dependent manner | induction of apoptosis (Jurkat cells): induces apoptosis in all of these cell lines in a dose-dependent manner | induction of apoptosis (HL-60 cells): induces apoptosis in all of these cell lines in a dose-dependent manner | induction of apoptosis (p53 WT A2780 cells): induces apoptosis in this cell line in a dose-dependent manner
